Reference: patent publication US5585373A, “3-(7'-oxo-1'-aza-4'-oxabicyclo[3.2.0]-hept-3'-YL)propionic acid derivative as antitumor agent” (priority 1994, dated 1996)
Converted amounts (≈) assume the structure as drawn.

Key:
KB cells = assay: In Vitro KB Cell Cytotoxicity Assay; assay type: cell-based; settings: Homo sapiens, 72 h, crystal violet staining, 3 days incubation
Experimental: Pharmacological Test 1 (In Vitro KB Cell Cytotoxicity Assay)
The cytotoxicity against KB cells was determined in accordance with a protein staining method (Grillis et al., Anal. Biochem., 159, 109 (1986)) using crystal violet. Stated more specifically, KB cells were incubated in an Eagle's minimum medium containing 10% FCS in a CO2 incubator at 37° C. The number of the cells was counted with a hemocytometer. A 100 μl quantity of the cell suspension, 3×10^4 cells/ml, was placed into each well of a 96-well plate and incubated for 24 hours. Portions (100 μl) of the drug diluted to final concentrations of 10, 1, 0.1, 0.01 and 0.001 μg/ml were added, as one dosage, to three wells, respectively. A drug-free medium was added to the wells of the control group. After incubation for 3 days, 25 μl of 25% glutaraldehyde was added and fixed for 15 minutes, followed by washing with water and drying. A 100 μl quantity of 0.05% crystal violet was added for 15 minutes of staining, followed by washing with water and drying. Extraction was performed with 100 μl of 0.05M NaH2 PO4 /EtOH (1:1 volume ratio). The absorbance was measured at a wavelength of 540 nm with a multi-scan spectrophotometer. The percent cell growth inhibition was calculated based on the absorbance by the following equation [formula]
The IC50 value (concentration of the drug for inhibiting the cell growth by 50%) was calculated through log-logit transformation of the dose-response curve and linear regression.

Sarcoma 180 = assay: In Vivo Antitumor Activity against Sarcoma 180; settings: for Mortality in 12 days: intraperitoneal, every four days, three times, ICR mice; for Cell growth inhibition rate: ip
Experimental: Pharmacological Test 2 (In Vivo Antitumor Activity against Sarcoma 180)
5×10^6 cells of transplantable mouse tumor, Sarcoma 180, were subcutaneously transplanted in the dorsal portion of 6-week-old male ICR mice (6-7 mice in each group). The test drug was dissolved in physiological saline containing 0.25 % Tween 80 and 3.5% dimethyl sulfoxide. The solution was intraperitoneally administered to the mice every four days, starting the administration 24 hours after the transplantation, three times in total. On the 12th day after the transplantation, the tumors were removed from the bodies and weighed. The average weight of the tumors in the test group and the corresponding weight in the control group were calculated to determine the ratio of tumor growth inhibition.

## N[C@@H](C(=O)O)[C@@H](OC(=O)c1ccccc1)[C@H]1CN2C(=O)C[C@@H]2O1 [Compound 12b, 2(R)-amino-3(R)-benzoyloxy-3-[(3'R,5'S)-7'-oxo-1'-aza-4'-oxabicyclo[3.2.0]hept-3'-yl]propionic acid]
KB cells
  IC50: 0.3 µg/mL (≈ 0.937 µM)
Sarcoma 180; 5 mg/kg/day
  Mortality in 12 days: 0/7
Sarcoma 180; 10 mg/kg/day
  Mortality in 12 days: 0/7
Sarcoma 180; 20 mg/kg/day
  Mortality in 12 days: 0/7
Sarcoma 180; 5 mg/kg
  Cell growth inhibition rate: 19%
Sarcoma 180; 10 mg/kg
  Cell growth inhibition rate: 19%
Sarcoma 180; 20 mg/kg
  Cell growth inhibition rate: 31%

## O=C(OCc1ccccc1)[C@H](O)[C@H](O)[C@H]1CN2C(=O)C[C@@H]2O1 [Compound 7, benzyl(2R,3S)-2,3-dihydroxy-3-[(3'R,5'S)-7'-oxo-1'-aza-4'-oxabicyclo[3.2.0]hept-3'-yl]propionate]
KB cells
  IC50: 0.09 µg/mL (≈ 0.293 µM)

## CO[C@H]([C@H](N)C(=O)O)[C@H]1CN2C(=O)C[C@@H]2O1 [Compound 32a, 3-[(3'R,5'S)-7'-oxo-1'-aza-4'-oxabicyclo[3.2.0]hept-3'-yl]-2(S)-amino-3(R)-methoxypropionic acid]
KB cells
  IC50: 0.03 µg/mL (≈ 0.13 µM)

## CC(=O)O[C@@H]([C@H]1CN2C(=O)C[C@@H]2O1)[C@@H](N)C(=O)O [Compound 12a, 3(R)-acetoxy-2(R)-amino-3-[(3'R,5'S)-7'-oxo-1'-aza-4'-oxabicyclo[3.2.0]hept-3'-yl]propionic acid]
KB cells
  IC50: 3 µg/mL (≈ 11.6 µM)

## N[C@H](C(=O)O)[C@@H](OCc1ccc(F)cc1)[C@H]1CN2C(=O)C[C@@H]2O1 [Compound 32c, 3-[(3'R,5'S)-7'-oxo-1'-aza-4'-oxabicyclo[3.2.0]hept-3'-yl]-2(S)-amino-3(R )-(4"-fluorobenzyl)oxy-propionic acid]
KB cells
  IC50: 0.04 µg/mL (≈ 0.123 µM)

## N[C@H](C(=O)O)[C@@H](OCC1CC1)[C@H]1CN2C(=O)C[C@@H]2O1 [Compound 32e, 3-[(3'R,5'S)-7'-oxo-1'-aza-4'-oxabicyclo[3.2.0]hept-3'-yl]-2(S)-amino-3(R )-cyclopropylmethyloxypropionic acid]
KB cells
  IC50: 0.4 µg/mL (≈ 1.48 µM)

## O=C(OCc1ccccc1)[C@H](O)[C@@H](O)[C@H]1CN2C(=O)C[C@@H]2O1 [Compound 4, benzyl(2R,3R)-2,3-dihydroxy-3-[(3'R,5'S)-7'-oxo-1'-aza-4'-oxabicylo[3.2.0]hept-3'-yl]propionate]
KB cells
  IC50: 0.07 µg/mL (≈ 0.228 µM)

## O=C(OCc1ccccc1)[C@@H](O)[C@H](O)[C@H]1CN2C(=O)C[C@@H]2O1 [Compound 5, benzyl(2S,3S)-2,3-dihydroxy-3-[(3'R,5'S)-7'-oxo-1'-aza-4'-oxabicyclo[3.2.0]hept-3'-yl]propionate]
KB cells
  IC50: 0.3 µg/mL (≈ 0.976 µM)

## N[C@H](C(=O)O)[C@@H](OCc1ccccc1)[C@H]1CN2C(=O)C[C@@H]2O1 [Compound 32b, 3-[(3'R,5'S)-7'-oxo-1'-aza-4'-oxabicyclo[3.2.0]hept-3'-yl]-2(S)-amino-3(R)-benzyloxypropionic acid]
KB cells
  IC50: 0.06 µg/mL (≈ 0.196 µM)
Sarcoma 180; 0.1 mg/kg/day
  Mortality in 12 days: 0/6
Sarcoma 180; 1.0 mg/kg/day
  Mortality in 12 days: 0/6
Sarcoma 180; 0.1 mg/kg
  Cell growth inhibition rate: 12%
Sarcoma 180; 1 mg/kg
  Cell growth inhibition rate: 38%

## O=C(OC(c1ccccc1)c1ccccc1)[C@H]([C@@H](OCc1ccccc1)[C@H]1CN2C(=O)C[C@@H]2O1)N(Cc1ccccc1)C(=O)OCc1ccccc1 [Compound 42, diphenylmethyl 3-[(3'R,5'S)-7'-oxo-1'-aza-4'-oxabicyclo[3.2.0]hept-3'-yl]-2(S)-(N-benzyloxycarbonyl-N-benzyl)amino-3(R)-benzyloxypropionate]
KB cells
  IC50: 3 µg/mL (≈ 4.31 µM)

## COc1ccc(CO[C@H]([C@H](N)C(=O)O)[C@H]2CN3C(=O)C[C@@H]3O2)cc1 [Compound 32d, 3-[(3'R,5'S)-7'-oxo-1'-aza-4'-oxabicyclo[3.2.0]hept-3'-yl]-2(S)-amino-3(R)-(4"-methoxybenzyl)oxypropionic acid]
KB cells
  IC50: 0.09 µg/mL (≈ 0.268 µM)

## O=C(OCc1ccccc1)[C@@H](O)[C@@H](O)[C@H]1CN2C(=O)C[C@@H]2O1 [Compound 6, benzyl (2S,3R)-2,3-dihydroxy-3-[(3'R,5'S)-7'-oxo-1'-aza-4'-oxabicylo[3.2.0]hept-3'-yl]propionate]
KB cells
  IC50: 0.09 µg/mL (≈ 0.293 µM)

## O=C(OC(c1ccccc1)c1ccccc1)[C@H]([C@@H](OCc1ccccc1)[C@H]1CN2C(=O)C[C@H]2O1)N(Cc1ccccc1)C(=O)OCc1ccccc1 [Compound 43, diphenylmethyl 3-[(3'R,5'R)-7'-oxo-1'-aza-4'-oxabicyclo[3.2.0]hept-3'-yl]-2(S)-(N-benzyloxycarbonyl-N-benzyl)amino-3(R)-benzyloxypropionate]
KB cells
  IC50: 3 µg/mL (≈ 4.31 µM)
